Measured values from patent publication US20030017158A1, “Method for detecting and killing epithelial cancer cells” (priority 2002, published 2003).

What was measured:
[1] = tested on: living normal oral epithelial cells; experiment: Selective toxicity, cell killing of normal cells over 8 days; assay type: cell-based; conditions: incubated with dye fraction, washed, observed over 8 days
Description: (§1) The compounds represented by peaks 5, 6, 7 and 8, obtained during the fractionation of the toluidine blue O, are analyzed for their selective toxicity towards living oral carcinoma cells (SqCHN) compared to living normal oral epithelial cells. Separate cultures of squamous carcinoma cells and normal epithelial cells are incubated with the different dye fractions and then washed with dye-free medium. The cells are then re-incubated in growth medium and observed over a period of 8 days to determine the extent of cell killing. The compound of peak 6 results in 95% cell death of carcinoma cells, compared to only about 20% killing of normal cells.

[2] = tested on: other squamous carcinomas, adenocarcinomas, lymphomas and sarcomas; experiment: Further in-vitro tests with other isolates of carcinoma cells and normal epithelial cells; assay type: cell-based; conditions: conducted in the manner of Example 8
Description: (§2) The therapeutic characteristics of the compounds of peaks 6 and 8 are determined by further in-vitro tests, conducted in the manner of Example 8, using other isolates of carcinoma cells and normal epithelial cells. The testing profile includes other squamous carcinomas of the head and neck, esophagus, lung, cervix and skin, as well as other types of cancers, including adenocarcinomas, lymphomas and sarcomas. In-vivo “delay of tumor growth” and “tumor regression assay” tests using tumor-bearing animals, including head and neck and lung carcinomas implanted in Balb-C mice, are made to analyze the in-vivo therapeutic benefit of these compounds.

[3] = tested on: living oral carcinoma cells (SqCHN); experiment: Selective toxicity, cell killing of carcinoma cells over 8 days; assay type: cell-based; conditions: for selective toxicity towards carcinoma cells: carcinoma cells compared to normal oral epithelial cells; for cell death of carcinoma cells: incubated with dye fraction, washed, observed over 8 days
Description: as §1

[4] = tested on: head and neck and lung carcinomas implanted in Balb-C mice; experiment: In-vivo delay of tumor growth and tumor regression assay; conditions: tumor-bearing Balb-C mice
Description: as §2

carcinoma cells = experiment: Uptake and retention of mitochondrial marking agents in living carcinoma cells; assay type: cell-based; conditions: 5 minute incubation, rinsed twice with 1% acetic acid, 2-butanol extraction, spectrophotometry
Description: Different concentrations of the various cationic marking agents, at 100, 50, 10 and 1 μg/ml are prepared in RPMI medium complete with 20% fetal calf serum, 1 mM glutamine, hydrocortisone, insulin, transferrin, estradiol, selenium and growth hormone.
The carcinoma cells are incubated at 37EC in tissue culture incubators with 5% CO2 and 95% relative humidity, for 5 minutes with each agent and concentration there and then rinsed twice using 2 minute incubations with 1% acetic acid. After incubation and rinsing, the cells are harvested, at 30 min., 1 hour, 2 hours, 4 hours and 8 hours. The cells are then extracted with 2-butanol and analyzed by spectrophotometry for quantitation of the marking agent.

SMILES | killing of normal cells [1] | selective toxicity to the wider variety of cancer cell types, in vitro [2] | selective toxicity towards carcinoma cells [3] | cell death of carcinoma cells [3] | selective toxicity, in-vivo therapeutic benefit [4] | saturation concentration (carcinoma cells)
Cc1cc2nc3ccc(N(C)C)cc3[s+]c2cc1N [peak 8] | about 20% | confirm the selective toxicity | selectively toxic towards carcinoma cells | 89% | confirm the selective toxicity | 
Cc1cc2nc3ccc(N(C)C)cc3[s+]c2cc1N.[Cl-] [toluidine blue O] |  |  |  |  |  | ≥ 10 µg/mL
Cc1c(N)ccc2nc3ccc(N(C)C)cc3[s+]c12 [peak 7] |  |  | do not exhibit the same selective toxicity |  |  | 
CNc1ccc2nc3ccc(N)c(C)c3[s+]c2c1 [peak 5] |  |  | do not exhibit the same selective toxicity |  |  | 
CNc1ccc2nc3cc(C)c(N)cc3[s+]c2c1 [peak 6] | about 20% | confirm the selective toxicity | selectively toxic towards carcinoma cells | 95% | confirm the selective toxicity | 
